Assays:
human PBMCs [1] = test: Viability of SEB stimulated PBMCs with ADAM inhibitors (MTT assay); type: cell-based; conditions: SEB 1 ng/mL, inhibitor 0.01-1 μM, with vs without inhibitor
human PBMCs [2] = test: Soluble CD28 generation by SEB or CMV stimulated PBMCs, human CD28 ELISA; type: cell-based; conditions: stimulated cells with protease inhibitors; sandwich ELISA
Procedure: ELISA—Commercial ELISA kits were used for quantitation of the amount of human interferon-gamma (Biolegend, Cat. No. 430103), human interleukin 2 (Biolegend, Cat. No. 431802), human interleukin 6 (Biolegend, Cat. No. 430502), human interleukin 10 (Biolegend, Cat. No. 430603), human […] beta 1 (Biolegend, Cat. No. 436708), human interleukin beta 1 (Biolegend, Cat. No. 437004) and human CD28 (R&D system, Cat. No. DY342). Cell Proliferation and viability (MTT assay) was conducted according to manufacturer instructions (Roche, cat #11465007001). Kynurenine (IDO activity) ELISA kit was conducted according to manufacturer instructions (ImmuSmo Cat #BA E-2200).
Protease Inhibitors—Protease inhibitors were added at the indicated concentrations at the start of each experiment. In week long assays another portion of the inhibitors was added after 3 days at the final concentration. […] Where mentioned the protease cocktail was composed with a mixture of TAPI-1 and GM6001 at equimolar ratio.
SEB or CMV activation of PBMCs for the generation of soluble CD28—0.3×10^6 PBMCs were stimulated with 0.5 ng/mL SEB (Sigma, Cat. No. S4881) for 5-7 days at 37° C. with/without the indicated concentration of various protease inhibitors in 48 well plate. Alternatively, 0.1×10^6 PBMCs were stimulated with 0.5 ng/mL SEB in 96 well plate format assay. For CMV stimulation 0.5×10^6 PBMCs were stimulated with 0.5 μg/mL CMV peptivator (Milteny Biotec, Cat. No. 130-093-435) for 2-5 days at 37° C. with/without the indicated concentration of various protease inhibitors in a 96 well plate. For continuous shedding experiments PBMC were stimulated with SEB or CMV in 24 well plate for 24 hr, cells were taken and washed three times with RPMI without stimulant and plated again in a 96 well plate. Samples were taken at indicated times and put under freezing conditions until examination for soluble CD28.

SCC-25 cells = test: SCC-25 cancer cell line trans-well co-culture with monocytes, proliferation; type: cell-based, human
Procedure: Co-culture of SCC-25 cancer cell line with monocytes in trans-well based assay—4×10^4 SCC-25 cells were plated on the bottom of 24 well plate with 1×10^5 monocytes placed on cell culture insert (Millipore, Cat. No. MCHT241148) with or without indicated treatments for 4 days in starvation media without serum.
Next, cells of the head and neck cancer cell line SCC-25 were incubated either alone or with monocytes in a trans-well assay. SCC-25 cells grown alone were administered IL-6 as a positive control, and indeed cell proliferation, as measured by MTT (FIG. 10D, upper) and as measured by % confluency (FIG. 10D, lower), was increased.

[3] = system: autologous monocytes and CD3 T cells; test: Autologous monocytes CD3 MLR with CMV peptide, cytokine secretion; type: cell-based, human
Procedure: Autologous monocytes CD3 MLR—0.5×10^6 T cells were mixed with 0.5×10^5 monocytes from same CMV reactive donor and stimulated with 0.5 μg/mL CMV peptivator for 6 days at 37° C. with/without the indicated concentration of treatments.
The mixed cells were stimulated for 5 days with CMV peptide (0.5 μg/mL) with and without increasing concentrations of recombinant human sCD28.
The MLR was run as before only with and without sCD28 and with and without an anti-PD1 antibody (MK3475, 5 μg/mL) (FIG. 9B).

human PBMCs [4] = test: SEB or CMV stimulated PBMCs with anti-PD1 and/or soluble CD28, cytokine secretion; type: cell-based
[5] = system: H22 hepatocellular carcinoma cells; test: H22 syngeneic mouse model, tumor growth; type: in vivo; conditions: Balb/c mice, H22 allograft, with anti-PD-1 therapy
From the text: The closest option is to administer recombinant sCD28 to mice to mimic a situation of elevated sCD28 levels. This was investigated in a H22 syngeneic mouse model. Balb/c fully immunocompetent mice received an allograft of H22 hepatocellular carcinoma cells.

human monocytes = test: Stimulation of monocytes with recombinant human CD28 (IDO, PD-L1, PD-L2); type: cell-based; conditions: recombinant human CD28 10 μg/mL
Procedure: Flow Cytometry—Generally, cells were kept on ice during all steps. Prior to staining, 5×10^5 cells were blocked with 50 μg/mL human IgG (Sigma, Cat. No. 14506) in FACS buffer (PBS with 0.1% BSA) for 15 min. Antibodies were used at concentrations recommended by the manufacturer and incubated for 30 min. in the dark. Incubations were done in a volume of 100 μL in 96-well U bottom plates. Cells were washed twice with 200 μL of FACS buffer and transferred to FACS tubes in 150 μL of FACS buffer for analysis. Cells were analyzed on a Gallios Flow Cytometer (Beckman Coulter) using the Kaluza for Gallios Flow Cytometry Acquisition Software.
Stimulation of monocytes with recombinant human CD28—1.5×10^6 monocytes were plated at 24 well plate in RPMI medium with […] IFN gamma (R&D system, Cat. No. 285-IF) in the presence of recombinant human CD28 at the indicated concentrations for 48 hrs. The generated cell populations were tested for the indicated phenotypes by FACS analysis of relevant markers (IDO, PD-L1 and PD-L2) and by analysis of secretion of characteristic cytokines (IL-6).
The enzyme indoleamine 2,3-dioxygenase (IDO) has been implicated in immune modulation through its ability to catabolize the essential amino acid Tryptophan. It is expressed by different immune cells and also by many cancer cells. Tryptophan shortage inhibits T lymphocytes maturation and proliferation, while Kynurenine, the end product of tryptophan catabolism, is also known as immunosuppressive metabolite that promotes immune tolerance in various physiological and pathophysiological conditions. To test the effect of sCD28 on IDO, isolated human monocytes were stimulated for 48 hr with IFNγ (1000 U/mL) in the presence of control human IgG or with recombinant human CD28 (10 μg/mL). After incubation, the monocytes were stained intracellularly for human IDO (FIG. 8E). To facilitate intracellular staining the cells were fixed and permeabilized with BD Cytofix/Cytoperm Buffer Kit. […]

human PBMCs [6] = test: CMV stimulation of PBMCs with ectopic recombinant human CD28, CTLA-4, CD80; cytokine ELISA/multiplex; type: cell-based
human PBMCs [7] = test: Lymphocyte clustering of SEB stimulated PBMCs (IncuCyte); type: cell-based; conditions: SEB 1 ng/mL; human IgG control
Procedure: Next, human PBMCs were stimulated with SEB (1 ng/mL) without or in the presence of recombinant human CD28. Human IgG was used as control. Lymphocyte clustering, a hallmark of immune activation was monitored using the IncuCyte® S3 Live-Cell, with pictures taken every 12 hours. […] It is well established that during in-vitro immune response antigen presenting cells (APC) cluster with one another and with other cell types, and clustering is essential for the antigen specific activation of resting lymphocytes.

[8] = system: isolated CD3 human T cells; test: CD3 T cells stimulation with anti-CD3 OKT3, IFN gamma secretion; type: cell-based; conditions: OKT3 2 μg/mL, CD80-Fc 2 μg/mL, sCD28 titration
Procedure: T cells stimulation with OKT3—0.1×10^6 isolated CD3 T cells (from healthy donors) were stimulated with indicated amount of anti-CD3 clone OKT3 for 48-72 hr at 37° C. When stated recombinant human CD80-Fc (2 μg/mL, R&D system) was added in soluble form. Antibodies to CD28 or controls were added at the indicated concentration in soluble form.
CD80 is one of the two main ligands for mCD28 along with CD86. The extracellular domain of CD80 fused to an Fc moiety has been used as an immune stimulatory molecule and is under investigation as a cancer therapy. In order to examine the effect of sCD28 on CD80-Fc efficacy, isolated CD3 human T cells were stimulated with plate bound anti-CD3 antibody (OKT3, 2 μg/mL) in the presence of 2 μg/mL soluble recombinant human CD80-Fc.

[9] = system: PBMCs isolated from cancer patients; test: SEB stimulated PBMCs of cancer patients, IFN gamma secretion; type: cell-based, human; conditions: SEB 5 ng/mL, 3 days

CC#CCOc1ccc(S(=O)(=O)N2CCSC(C)(C)[C@@H]2C(=O)NO)cc1 [TMI-1]
viability of the immune cells (MTT) (human PBMCs [1]): no significant difference | sCD28 levels detected with antibodies of the invention (human PBMCs [2]): Lower levels of sCD28

IL-6: interleukin-6 administered as a positive control
cell proliferation (MTT, % confluency) (SCC-25 cells; SCC-25 cells grown alone): increased

MK-3475: Anti-Human PD-1 pembrolizumab [reference compound]
IFN gamma secretion ([3]; CMV peptide 0.5 μg/mL): increased IFN gamma secretion | TGF beta secretion ([3]; CMV peptide 0.5 μg/mL): decreased TGF beta secretion | proinflammatory cytokine secretion (IFN gamma and IL-2) (human PBMCs [4]; PBMC culture, SEB or CMV, 3 days, MK3475 5 μg/mL): increased proinflammatory cytokine secretion

sCD28: recombinant human CD28 lacking the transmembrane and cytoplasmic domains
cell proliferation (MTT, % confluency) (SCC-25 cells; SCC-25 coculture with monocytes): by far the greatest increase | effect on anti-PD-1 therapy (tumor growth) [5]: nearly completely abrogated in two of the mice | PD-L1 expression on monocytes (human monocytes; IFNγ 1000 U/mL 48 hours): upregulated | PD-L2 expression on monocytes (human monocytes; IFNγ 1000 U/mL 48 hours): upregulated | IDO expression in monocytes (human monocytes; IFNγ 1000 U/mL 48 hr): strongly enhanced IDO expression | IFN gamma secretion (human PBMCs [6]; CMV 0.5 μg/mL): dose-dependent inhibition of IFN gamma secretion | IL-6 secretion (human PBMCs [6]; CMV 0.5 μg/mL): increase IL-6 cytokine secretion | interleukin-10 secretion (human PBMCs [6]; CMV 0.5 μg/mL): elevation | CD80-Fc amount needed for immune response (human PBMCs [6]; CMV peptide 3 days, constant sCD28, CD80-Fc titration): an increased amount of CD80-Fc was required | IFN gamma secretion ([3]; CMV peptide 0.5 μg/mL): inhibit IFN gamma secretion | TGF beta secretion ([3]; CMV peptide 0.5 μg/mL): increasing the secretion | IL-1B secretion ([3]; CMV peptide 0.5 μg/mL, 5 days): increasing the secretion | IL-10 secretion ([3]; CMV peptide 0.5 μg/mL, 5 days): increasing the secretion | effect of MK-3475 in the presence of sCD28 ([3]; MK3475 5 μg/mL): significantly reduced | lymphocyte cluster formation (human PBMCs [7]): diminish the amount and size of cluster formation | effect on CD80-Fc activation (IFN gamma secretion) [8]: counteracted the secondary activation effect of the CD80-Fc | effect on immune activation by MK-3475 (human PBMCs [4]; sCD28 2 and 10 μg/mL with MK3475 5 μg/mL): abrogated completely this immune activation effect | effect on MK-3475 activity [9]: rendered the effect of MK-3475 nonexistent | concentration of human IFN gamma in the supernatant ([9]; with or without MK-3475): greatly reduced

— patent publication US12139534B2, “Methods and compositions for decreasing soluble immune receptor CD28” (BIOND BIOLOGICS LTD., priority 2018, dated 2024)
